In brackets after ≈: the same amount, converted by molar mass. Read-outs that look alike come from different tables or passages of the source.
Key:
[1] = test system: A. baumannii; experiment: Antibiotic susceptibility (MIC, Sensititre Trays) with rBPI21 poloxamer formulations; assay type: cell-based; details: for MIC: Acinetobacter baumannii, read-out: Minimum Inhibitory Concentration
Experimental: (§1) The effect of therapeutic compositions of rBPI21 formulated with poloxamer, with or without EDTA, was evaluated on the antibiotic susceptibility of the multiple drug resistant A. baumannii, S. pneumoniae, E. faecium and P. aeruginosa organisms of Example 5. Therapeutic compositions were prepared containing 2 mg/mL rBPI21, (5 mM sodium citrate, 150 mM NaCl) with a 0.2% (w/v) concentration of PLURONIC F68, P103, P104, P105 or P123. The effect on the antibiotic susceptibility of the organisms was determined in Mueller-Hinton Broth plus Cations (CSMHB, Remel), or 40% pooled human serum in CSMHB (Sigma, St. Louis, Mo.), as follows.
(§2) Isolated colonies of the organism from overnight cultures were suspended in Microscan® Inoculum Water to a concentration equivalent to a 0.5 McFarland Standard (approximately 1×10^8 CFU/ml), determined using a Microscan® turbidimeter. Aliquots were transferred to either CSMHB or 40% pooled human serum in CSMHB. Each tube contained either a final concentration of 16 μg/mL rBPI21 or an equivalent volume of control buffer. Minimal inhibitory concentrations (MIC) for each antibiotic tested, i.e. the lowest concentration of antibiotic which inhibits visible growth, were determined using gram-negative (MB and MC) and gram-positive (MA) Sensititre Trays (Radiometer America, Westlake, Ohio), which allow for the rapid and simultaneous survey of a broad spectrum of standard antibiotics. Any other antimicrobial panel systems known in the art, such as the Microscan® (Dade Microscan, Sacramento, Calif.), Pasco (DIFCO, Detroit, Mich.) and Alamar (Alamar, Sacramento, Calif.) systems, may alternatively be used to assay for antibiotic susceptibility.
(§3) Tables 12-15 below display a summary of the results of the antibiotic screening panels, reported for each strain tested as the MIC of the tested antibiotics in the presence of the indicated rBPI21 therapeutic composition. The antibiotic susceptibility standards (interpretation of an MIC as clinically resistant (R), intermediate (I) or susceptible (S) according to NCCLS standards) applicable to the organism tested appear in superscript next to the MIC.

[2] = test system: P. aeruginosa; experiment: as above; assay type: cell-based; details: for MIC: Pseudomonas aeruginosa, read-out: Minimum Inhibitory Concentration
Experimental: as §1, §2, §3

[3] = CSMHB, 16 μg/mL rBPI21 with F68
[4] = CSMHB, 16 μg/mL rBPI21 with P103
[5] = CSMHB, 16 μg/mL rBPI21 with P104
[6] = CSMHB, 16 μg/mL rBPI21 with P105
[7] = CSMHB, 16 μg/mL rBPI21 with P123
[8] = Serum, 16 μg/mL rBPI21 with F68
[9] = Serum, 16 μg/mL rBPI21 with P103
[10] = Serum, 16 μg/mL rBPI21 with P104
[11] = Serum, 16 μg/mL rBPI21 with P105
[12] = Serum, 16 μg/mL rBPI21 with P123

For `CC(C)(O/N=C(\C(=O)N[C@@H]1C(=O)N2C(C(=O)[O-])=C(C[n+]3ccccc3)CS[C@H]12)c1csc(N)n1)C(=O)O` [Ceftazidime], the MIC [1, 3] was 32 µg/mL (≈ 58.5 µM), the MIC [1, 4] was less than 4 µg/mL and the MIC [1, 5] was less than 4 µg/mL. For the same molecule, the MIC [1, 6] was less than 4 µg/mL, the MIC [1, 7] was less than 4 µg/mL and the MIC ([1]; CSMHB, Control (no BPI)) was 16 µg/mL (≈ 29.3 µM). The MIC [1, 8] was 32 µg/mL (≈ 58.5 µM), the MIC [1, 9] was 16 µg/mL (≈ 29.3 µM) and the MIC [1, 10] was 16 µg/mL (≈ 29.3 µM). The MIC [1, 11] was 16 µg/mL (≈ 29.3 µM), the MIC [1, 12] was 16 µg/mL (≈ 29.3 µM) and the MIC ([1]; Serum, Control (no BPI)) was greater than 32 µg/mL. For the same molecule, the “susceptibility interpretation of MIC (superscript)” value (from here on “susceptibility interpretation”) [1, 3] was “R”, the “susceptibility interpretation” value [1, 4] was “S” and the “susceptibility interpretation” value [1, 5] was “S”. The “susceptibility interpretation” value [1, 6] was “S”, the “susceptibility interpretation” value [1, 7] was “S” and the “susceptibility interpretation” value ([1]; CSMHB, Control (no BPI)) was “I”. The “susceptibility interpretation” value [1, 8] was “R”, the “susceptibility interpretation” value [1, 9] was “I” and the “susceptibility interpretation” value [1, 10] was “I”. The “susceptibility interpretation” value [1, 11] was “I”, the “susceptibility interpretation” value [1, 12] was “I” and the “susceptibility interpretation” value ([1]; Serum, Control (no BPI)) was “R”.
`O=C(N[C@H](CO)[C@H](O)c1ccc([N+](=O)[O-])cc1)C(Cl)Cl` [Chloramphenicol] was tested, and the “susceptibility interpretation” value [2, 3] was “R”, the “susceptibility interpretation” value [2, 4] was “I” and the “susceptibility interpretation” value [2, 5] was “R”. The “susceptibility interpretation” value [2, 6] was “I”, the “susceptibility interpretation” value [2, 7] was “I” and the “susceptibility interpretation” value ([2]; CSMHB, Control (no BPI)) was “R”. It also gave an MIC [2, 3] greater than 32 µg/mL, an MIC [2, 4] of 16 µg/mL (≈ 49.5 µM) and an MIC [2, 5] greater than 32 µg/mL. For the same molecule, the MIC [2, 6] was 16 µg/mL (≈ 49.5 µM), the MIC [2, 7] was 16 µg/mL (≈ 49.5 µM) and the MIC ([2]; CSMHB, Control (no BPI)) was greater than 32 µg/mL. The MIC [2, 8] was greater than 32 µg/mL, the MIC [2, 9] was 16 µg/mL (≈ 49.5 µM) and the MIC [2, 10] was 16 µg/mL (≈ 49.5 µM). It also gave an MIC [2, 11] of 16 µg/mL (≈ 49.5 µM), an MIC [2, 12] of 16 µg/mL (≈ 49.5 µM) and an MIC ([2]; Serum, Control (no BPI)) greater than 32 µg/mL. The “susceptibility interpretation” value [2, 8] was “R”, the “susceptibility interpretation” value [2, 9] was “I” and the “susceptibility interpretation” value [2, 10] was “I”. The “susceptibility interpretation” value [2, 11] was “I”, the “susceptibility interpretation” value [2, 12] was “I” and the “susceptibility interpretation” value ([2]; Serum, Control (no BPI)) was “R”. It also gave an MIC [1, 3] of 1 µg/mL (≈ 3.09 µM), an MIC [1, 4] of less than 0.5 µg/mL and an MIC [1, 5] of 1 µg/mL (≈ 3.09 µM). For the same molecule, the MIC [1, 6] was less than 0.5 µg/mL, the MIC [1, 7] was less than 0.5 µg/mL and the MIC ([1]; CSMHB, Control (no BPI)) was greater than 4 µg/mL. It also gave an MIC [1, 8] greater than 4 µg/mL, an MIC [1, 9] of 2 µg/mL (≈ 6.19 µM) and an MIC [1, 10] of 4 µg/mL (≈ 12.4 µM). For the same molecule, the MIC [1, 11] was greater than 4 µg/mL, the MIC [1, 12] was greater than 4 µg/mL and the MIC ([1]; Serum, Control (no BPI)) was greater than 4 µg/mL. For the same molecule, the “susceptibility interpretation” value [1, 3] was “S”, the “susceptibility interpretation” value [1, 4] was “S” and the “susceptibility interpretation” value [1, 5] was “S”. For the same molecule, the “susceptibility interpretation” value [1, 6] was “S”, the “susceptibility interpretation” value [1, 7] was “S” and the “susceptibility interpretation” value ([1]; CSMHB, Control (no BPI)) was “R”. The “susceptibility interpretation” value [1, 8] was “R”, the “susceptibility interpretation” value [1, 9] was “S” and the “susceptibility interpretation” value [1, 10] was “R”. The “susceptibility interpretation” value [1, 11] was “R”, the “susceptibility interpretation” value [1, 12] was “R” and the “susceptibility interpretation” value ([1]; Serum, Control (no BPI)) was “R”.
